In paper PMC5073051 (European journal of medicinal chemistry, 2016) one finds IC50 data, which are given here for four compounds.

For series [1], the system named is MDA-MB-231 cells. As to the kind of experiment: HGF-induced cell migration wound-healing assay. Conditions: Homo sapiens, MDA-MB-231, 24 h, read-out: Antimigratory activity IC50 ± SEM, MDA-MB-231, wound-healing assay, HGF 40 ng/mL, 24 h.
In series [2] the target is human placental glutathione S-transferase (GST). The settings on record: read-out: inhibition of human placental GST activity IC50; cited from earlier work.
Series [3] relates to SAS cells. Conditions: read-out: cytotoxicity IC50, SAS oral cancer cells; cited from earlier work.
The test system of series [4] is OEC-M1 cells. Conditions: read-out: cytotoxicity IC50, OEC-M1 oral cancer cells; cited from earlier work.

SMILES strings stand for the structures.

Take `COc1cc(/C=C/C=N/CCc2ccc(O)cc2)cc(OC)c1O` [Compound 11]: the IC50 in series [1] is less than 5 µM. `COc1cc(/C=C/COC(=O)/C=C/c2ccc(O)c(OC)c2)ccc1O` [Compound 40, coniferyl ferulate]: the IC50 in series [2] was 0.3 µM. For `O=C(/C=C/c1ccc(O)cc1)OCCc1ccc(O)cc1` [Compound 6, Tyrosol coumarate], the IC50 in series [3] and in series [4] was more than 100 µM throughout. For the compound `COc1cc(/C=C/C(=O)OCCc2ccc(O)cc2)ccc1O` [Compound 5, Tyrosol ferulate], the IC50 in series [3] and in series [4] was more than 100 µM in each case.
